The target of experiment [1] is T1, Estrogen receptor (Homo sapiens, UniProt P03372).
T1 sequence (P03372 whole entry): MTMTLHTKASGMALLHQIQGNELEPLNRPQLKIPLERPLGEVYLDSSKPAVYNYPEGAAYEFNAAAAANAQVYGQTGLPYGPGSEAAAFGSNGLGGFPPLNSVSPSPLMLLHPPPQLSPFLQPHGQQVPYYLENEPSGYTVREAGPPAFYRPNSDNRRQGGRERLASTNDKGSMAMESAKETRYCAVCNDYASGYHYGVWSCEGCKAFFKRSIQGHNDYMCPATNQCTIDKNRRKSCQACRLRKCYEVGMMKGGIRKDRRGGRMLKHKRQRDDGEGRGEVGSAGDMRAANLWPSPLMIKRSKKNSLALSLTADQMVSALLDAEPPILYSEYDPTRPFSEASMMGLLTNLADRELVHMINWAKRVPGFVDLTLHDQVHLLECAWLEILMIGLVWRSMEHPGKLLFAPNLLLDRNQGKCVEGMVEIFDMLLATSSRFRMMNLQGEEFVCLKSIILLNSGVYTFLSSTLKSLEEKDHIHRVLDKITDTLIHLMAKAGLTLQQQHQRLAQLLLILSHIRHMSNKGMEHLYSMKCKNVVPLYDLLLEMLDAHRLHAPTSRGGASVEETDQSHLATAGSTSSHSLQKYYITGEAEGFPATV

Experiment [2] deals with T1, Estrogen receptor. This is another data set of the same source.
Description: Agonist activity at RST7-ERalpha (unknown origin) co-expressed with (ERE)TK-luciferase reporter plasmid transfected in human HepG2 cells incubated for 24 hrs by Renilla luciferase based reporter assay

pEC50: −log10 of the molar value.

For orientation: pEC50 means the negative decadic logarithm of the EC50, by convention in mol/L. Low readings indicate a large EC50, high ones a small EC50. `Oc1ccc(CNc2nc(Cl)nc3scc(-c4ccccc4)c23)cc1O`: the pEC50 in experiment [1] and in experiment [2] was < 5.00 throughout.

(Values after ChEMBL document CHEMBL5120928, “A New Chemotype of Chemically Tractable Nonsteroidal Estrogens Based on a Thieno[2,3-d]pyrimidine Core” (ACS Med Chem Lett, 2022).)
